In patent publication US8129527B2, “Analogs of dehydrophenylahistins and their therapeutic use” (Nereus Pharmacuticals, Inc., priority 2006, dated 2012):
≈ marks a conversion by molar mass, not a printed value. Like-named read-outs stand apart in the source and are kept apart here. Marks after values point to notes of the source that are not given here.

Legend:
[1] = system: MCF7 cells, GFP-alpha-tubulin; experiment: Analysis of microtubule dynamics, time-lapse microscopy; assay type: cell-based, human
MAP-rich microtubules = experiment: Microtubule mean length distributions, transmission electron microscopy; assay type: biochemical, bovine; conditions: in words
Method: Transmission electron microscopy was used to determine the mean length distribution of microtubules in the absence or presence of tested agent. At 75 minutes and prior to sedimentation, 10 μl aliquots from the polymer mass experiments were fixed by dilution into 290 μl PEM100-buffered 0.2% glutaraldehyde. Thirty microliters of fixed sample was settled onto formvar-coated 150 ICG mesh electron microscope grids for 90 seconds. Excess sample was wicked off with Whatman filter paper. Thirty microliters of cytochrome C (1 mg/ml) was applied for 30 seconds to enhance protofilament resolution and facilitate negative staining. Uranyl acetate (1.5%) was applied for 20 seconds and the excess was wicked off Grids were viewed in a Jeol electron microscope-1200 EX11 at 2000× and 30,000× magnification. The Zeiss MOPIII was used to determine microtubule length distributions and mean lengths for at least 100 microtubules per sample.

[2] = system: MCF7 human breast carcinoma cells; experiment: Mitotic progression (mitotic index); assay type: cell-based; conditions: 20 hours, read-out: Mitotic block Ave. IC50 ± sd
Method: The fraction of cells in mitosis at a given drug concentration (mitotic index) was determined in the breast cancer cell line MCF7. Cells were plated at a density of 3×10^4 cells/ml in six-well plates. After 24 hours, cells were incubated in the absence or presence of drug over a range of concentrations (1 nM to 1 μM) for 20 hours. […] Cells were fixed with 10% formalin in PBS overnight at 37° C., permeabilized in methanol for 10 minutes, and stained with 4,6-diamidino-phenylindole (DAPI) to visualize nuclei. Stained cells were spread on coverslips in Vectashield mounting media (Burlingame, Calif.) and sealed onto slides with nail polish. Fluorescence microscopy was used to determine mitotic indices.

[3] = system: MES-SA (Taxol Sensitive) human uterine sarcoma; experiment: Drug resistant cell line pair, cytotoxicity (Example 10B); assay type: cell-based
From the text: (§1) 1) Human Uterine Sarcoma Tumor Cell Line Pair: MES-SA (Taxol Sensitive) and MES-SA/Dx5 (Taxol Resistant).

[4] = system: MES-SA/Dx5 (Taxol Resistant) human uterine sarcoma; experiment: as above; assay type: cell-based
From the text: as §1

MCF-7 human breast tumor = experiment: MCF-7 Human Breast Tumor Xenograft Model; assay type: in vivo, nude mice; conditions: in combination with taxotere
Method: Animals used were (exceptions are indicated for individual studies): female nude mice (nu/nu) between 5 and 6 weeks of age (˜20 g, Harlan); group size was 9-10 mice per group unless otherwise indicated.
(§2) Selected novel compounds were administered as monotherapy via the intraperitoneal (i.p.) route at the doses indicated for the individual study; for the combination studies the selected reference chemotherapy agents were injected 15-30 min prior to the compound.
(§3) Saline dilutions are used to achieve the injection concentrations used for the reference compounds.
Female nude mice (˜20 g) were implanted s.c. with 21-day release estrogen (0.25 mg) pellets 24 hours prior to the s.c. implantation with MCF-7 tumor fragments (harvested from s.c. tumors in nude mice hosts). The study then proceeded as described for the HT-29 model, using taxotere as the standard chemotherapy agent.
In this model unless otherwise noted for the individual study, the novel compounds were injected via the intraperitoneal route daily on Days 1-5, inclusive (qdx5); taxotere was administered intravenously on Days 1, 3 and 5 (qodx3).
The doses of the compounds were administered on Days 1, 2, 3, 4, and 7; Taxotere was administered on Days 1, 3 and 7.

[5] = system: NCI-H292 (human non-small cell lung tumor); experiment: Tumor panel screen cytotoxicity (Example 10A); assay type: cell-based
From the text: (§4) Cells were maintained at subconfluent densities in their respective culture media.

[6] = system: CCD-27sk (normal human fibroblast); experiment: Tumor panel screen cytotoxicity (Example 10A); assay type: cell-based; conditions: Homo sapiens; CCD-27sk Fibroblast
From the text: as §4

[7] = Tumor panel screen cytotoxicity (Example 10A); assay type: cell-based, human; conditions: human, CCD-27sk normal fibroblast cells; CCD-27sk Fibroblast; maximum cytotoxic effect
From the text: as §4

[8] = system: OVCAR-3 (human ovarian tumor); experiment: Tumor panel screen cytotoxicity (Example 10A); assay type: cell-based; conditions: OVCAR-3 Ovary
From the text: as §4

HT29 (human colon tumor) = experiment: Tumor panel screen cytotoxicity (Example 10A); assay type: cell-based; conditions: HT-29 Colon
From the text: as §4

[9] = system: B16-F10 (murine melanoma); experiment: Tumor panel screen cytotoxicity (Example 10A); assay type: cell-based
From the text: as §4

[10] = system: MDA-MB-231 (human breast tumor); experiment: Tumor panel screen cytotoxicity (Example 10A); assay type: cell-based; conditions: MDA-MB-231 Breast
From the text: as §4

[11] = system: PC3 (human prostate tumor); experiment: Tumor panel screen cytotoxicity (Example 10A); assay type: cell-based; conditions: PC-3 Prostate
From the text: as §4

HT-29 human colon tumor = experiment: HT-29 Human Colon Tumor Xenograft Model; assay type: in vivo
Method: as §2, §3
Animals were implanted subcutaneously (s.c.) by trocar with fragments of HT-29 tumors harvested from s.c. growing tumors in nude mice hosts. When the tumor size reached 5 mm×5 mm (about 10-17 days) the animals were matched into treatment and control groups. Mice were weighed twice weekly and tumor measurements were obtained using calipers twice weekly, starting on Day 1. The tumor measurements were converted to estimated mg tumor weight using the formula (W^2×L)/2. When the estimated tumor weight of the control group reached an average of 1000 mg the mice were weighed, sacrificed and the tumor removed.

[12] = system: HL-60 (Mitoxantrone-Sensitive) human acute promyelocytic leukemia; experiment: Drug resistant cell line pair, cytotoxicity (Example 10B); assay type: cell-based; conditions: HL-60 Sensitive
From the text: (§5) 2) Human Acute Promyelocytic Leukemia Cell Line Pair: HL-60 (Mitoxantrone-Sensitive) and HL-60/MX-2 (Mitoxantrone-Resistant)

Candida albicans = experiment: Antifungal susceptibility testing, broth dilution (MIC/MFC); assay type: cell-based; conditions: Candida albicans; C. albicans 90028; read-out: MIC
Outline: (§6)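 Tested against two isolates per species (one for C. glabrata). After MIC, fungicidal concentration determined by plating 0.1 μl from MIC and each higher concentration.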

Aspergillus fumigatus = experiment: as above; assay type: cell-based; conditions: Aspergillus fumigatus; for MIC: read-out: MIC
Outline: as §6

Candida glabrata = experiment: as above; assay type: cell-based; conditions: Nakaseomyces glabratus; C. glabrata; read-out: MIC
Outline: as §6

[13] = system: HL-60/MX-2 (Mitoxantrone-Resistant); experiment: Drug resistant cell line pair, cytotoxicity (Example 10B); assay type: cell-based, human; conditions: Homo sapiens, HL60/MX2; HL-60 Resistant (HL-60/MX-2)
From the text: as §5

HuVEC = experiment: Action on microtubule function, α-tubulin staining; conditions: 2 μM, thirty minutes exposure
[14] = Table 28, concentration effecting 25% of the maximal mitotic block
[15] = Table 29, concentration effecting 50% of the maximal mitotic block

With `COc1ccc(/C=C\c2cc(OC)c(OC)c(OC)c2)cc1O` [CA4, Combretastatin A4] the “% time spent, Attenuation” value [1, 14] was 39.50%, the “% time spent, Growth” value [1, 14] was 35.31% and the “% time spent, Shortening” value [1, 14] was 25.19%. For the same compound, the “Freq. of Catastrophe” value [1, 14] was 1.52 min⁻¹, the “Freq. of Rescue” value [1, 14] was 1.90 min⁻¹ and the “Mean duration, Attenuation” value [1, 14] was 0.45 min. For the same compound, the “Mean duration, Growth” value [1, 14] was 0.27 min, the “Mean duration, Shortening” value [1, 14] was 0.21 min and the “Mean rates, Growth” value [1, 14] was 10.59 μm/min. For the same compound, the “Mean rates, Shortening” value [1, 14] was 40.21 μm/min, the Dyn. ([1]; Table 28, dynamicity, concentration effecting 25% of the maximal mitotic block) was 13.87 μm/min and the “% time spent, Attenuation” value [1, 15] was 36.23%. The “% time spent, Growth” value [1, 15] was 43.64%, the “% time spent, Shortening” value [1, 15] was 20.13% and the Dynamicity [1, 15] was 10.91 μm/min. The “Freq. of Catastrophe” value [1, 15] was 1.09 min⁻¹, the “Freq. of Rescue” value [1, 15] was 2.79 min⁻¹ and the “Mean duration, Attenuation” value [1, 15] was 0.55 min. The “Mean duration, Growth” value [1, 15] was 0.33 min, the “Mean duration, Shortening” value [1, 15] was 0.22 min and the “Mean rates, Growth” value [1, 15] was 11.21 μm/min. For the same compound, the “Mean rates, Shortening” value [1, 15] was 29.88 μm/min, the MT dynamic instability ([1]; concentrations effecting 25% or 50% of maximal mitotic block) was “did not have a measurable effect on MT dynamic instability” and the MT nucleation (MAP-rich microtubules) was “did not affect MT nucleation”. The IC50 [2] was 5.4 ± 0.7 nM.

`CC(C)(C)c1[nH]cnc1/C=C1\NC(=O)[C@H](Cc2ccccc2)NC1=O` [t-butyl-phenylahistin] gave an IC50 ([3]; Homo sapiens, MES-SA, CsA Pretreat, Studies II-III in separate lines) of 162 nM, an IC50 ([3]; Homo sapiens, MES-SA, No CsA, Studies I-III in separate lines) of 144 nM and an IC50 ([3]; No CsA, Studies I-III in separate lines) of 122 nM. For the same compound, the IC50 ([4]; Homo sapiens, MES-SA/Dx5, MES-SA/DX5 Resistant, CsA Pretreat, Studies II-III in separate lines) was 622 nM, the IC50 ([4]; Homo sapiens, MES-SA/Dx5, MES-SA/DX5 Resistant, No CsA, Studies I-III in separate lines) was 825 nM and the IC50 ([4]; MES-SA/DX5 Resistant, No CsA, Studies I-III in separate lines) was 694 nM. For the same compound, the “potency in the resistant MES-SA/DX5 line vs the sensitive line” value ([4]; in words) was “only slightly reduced”, the “effect on estimated tumor growth” value (MCF-7 human breast tumor) was “significant potentiation of taxotere” and the IC50 ([5]; Homo sapiens) was 384 nM. For the same compound, the “% Cytotoxicity Mean” value ([5]; maximum cytotoxic effect) was 65%, the IC50 [6] was > 20 µM and the cytotoxicity at 48 h [7] was 45%. For the same compound, the IC50 ([8]; Homo sapiens) was > 20 µM, the “% Cytotoxicity Mean” value ([8]; maximum cytotoxic effect) was 37% and the “% Cytotoxicity Mean” value (HT29 (human colon tumor); maximum cytotoxic effect) was 88%. The IC50 (HT29 (human colon tumor); Homo sapiens) was 420 nM, the IC50 ([9]; Mus musculus) was 736 nM and the “% Cytotoxicity Mean” value ([9]; maximum cytotoxic effect) was 74%. For the same compound, the IC50 ([10]; Homo sapiens) was 387 nM, the “% Cytotoxicity Mean” value ([10]; maximum cytotoxic effect) was 65.5% and the IC50 ([11]; Homo sapiens) was 174 nM. For the same compound, the “% Cytotoxicity Mean” value ([11]; maximum cytotoxic effect) was 59.5%, the “Comments (combination with CPT-11)” value (HT-29 human colon tumor; NPI compound + CPT-11 100 ip qwx3, study and dose as in the line) was “Synergy” and the “NPI-Compound Result TGI %” value (HT-29 human colon tumor; Study 2139, monotherapy 30 mg/kg ip q3dx5) was “No Effect”. For the same compound, the “Combination Results TGI %” value (HT-29 human colon tumor; Study 2139, t-butyl-phenylahistin 30 mg/kg ip q3dx5 + CPT-11 100 ip qwx3) was 77.7 *, # %, the “Exceed NCI Criterion (TGI ≧ 58%)” value (HT-29 human colon tumor; which treatment group exceeds the criterion, NPI compound, CPT-11 100 ip qwx3 or combination, study and dose as in the line) was “Combination” and the IC50 [12] was 255 nM. For the same compound, the MIC (Candida albicans) was > 32 µg/mL, the MIC (Aspergillus fumigatus; A. fumigatus isolate #1) was > 16 µg/mL and the MFC (Aspergillus fumigatus; A. fumigatus isolate #2) was 0.125 µg/mL (≈ 0.369 µM). The MIC (Aspergillus fumigatus; A. fumigatus isolate #2) was < 0.03 µg/mL, the MIC (Candida glabrata) was > 32 µg/mL and the IC50 [13] was 175 nM. For the same compound, the “microtubule depolymerization in HuVEC cells” value (HuVEC) was “induced microtubule depolymerization”.
